1 compound from ChEMBL document CHEMBL6087416, “Discovery of novel fused-heterocycle-bearing diarypyrimidine derivatives as HIV-1 potent NNRTIs targeting tolerant region I for enhanced antiviral activity and resistance profile” (Eur J Med Chem, 2025) can be followed below.

For data set [1], the system named is Human immunodeficiency virus 1. As to the kind of experiment: Antiviral activity against NNRTI-resistant HIV-1 harboring RT K103N mutant infected in human MT4 cells assessed as protection against virus-induced cytopathic effect incubated for 5 days by MTT assay. The conditions noted are these: Human immunodeficiency virus 1, MT4, 120 h. In kind it is functional, organism-based. On the technique in general: Cytopathic effects are the visible damage that an infection or toxin causes in cultured cells.

Data set [2] has as its system Human immunodeficiency virus 1. As to the kind of experiment: Antiviral activity against NNRTI-resistant HIV-1 harboring RT E138K mutant infected in human MT4 cells assessed as protection against virus-induced cytopathic effect incubated for 5 days by MTT assay. In kind it is functional, organism-based. The conditions noted are these: Human immunodeficiency virus 1, MT4, 120 h.

Data set [3] concerns Human immunodeficiency virus 1. The data set is classed as functional, organism-based. The conditions noted are these: Human immunodeficiency virus 1, MT4, 120 h.
The subject of data set [4] is Human immunodeficiency virus 1. The experiment in a line: Antiviral activity against NNRTI-resistant HIV-1 harboring RT L100I mutant infected in human MT4 cells assessed as protection against virus-induced cytopathic effect incubated for 5 days by MTT assay. In kind it is functional, organism-based. The conditions noted are these: Human immunodeficiency virus 1, MT4, 120 h.

In data set [5] the test system is Human immunodeficiency virus 1. The data set is classed as functional, organism-based. The conditions noted are these: Human immunodeficiency virus 1, MT4, 120 h. This is another data set of the same source.
The subject of data set [6] is Human immunodeficiency virus 1. In kind it is functional, organism-based. The conditions noted are these: Human immunodeficiency virus 1, RES056, MT4, 120 h.
Data set [7] deals with Human immunodeficiency virus 1. The data set is classed as functional, organism-based. The conditions noted are these: Human immunodeficiency virus 1, MT4, 120 h. This is another data set of the same source.
Data set [8] is described as follows: Cytotoxicity against human MT4 cells assessed as reduction in cell viability measured after 5 days by MTT assay. The data set is classed as toxicity, cell-based. The conditions noted are these: time 5 day. (Tetrazolium dyes change colour on reduction, which living cells bring about.)
In data set [9] the test system is Human immunodeficiency virus 2. As to the kind of experiment: Antiviral activity against HIV-2 ROD infected in human MT4 cells assessed as protection against virus-induced cytopathic effect incubated for 5 days by MTT assay. The data set is classed as functional, organism-based. The conditions noted are these: Human immunodeficiency virus 2, ROD, MT4, 120 h.
For data set [10], the system named is Human immunodeficiency virus 1. As to the kind of experiment: Potency index, ratio of Zidovudine EC50 to test compound EC50 for antiviral activity against NNRTI-resistant HIV-1 harboring RT K103N mutant infected in human MT4 cells assessed as protection against virus-induced cytopathic effect incubated for 5 days by MTT assay. The data set is classed as functional. The conditions noted are these: time 5 day.

For data set [11], the system named is Human immunodeficiency virus 1. The experiment in a line: Potency index, ratio of Nevirapine EC50 to test compound EC50 for antiviral activity against NNRTI-resistant HIV-1 harboring RT K103N mutant infected in human MT4 cells assessed as protection against virus-induced cytopathic effect incubated for 5 days by MTT assay. The data set is classed as functional. The conditions noted are these: time 5 day.

For data set [12], the system named is Human immunodeficiency virus 1. The experiment in a line: Potency index, ratio of Efavirenz EC50 to test compound EC50 for antiviral activity against NNRTI-resistant HIV-1 harboring RT K103N mutant infected in human MT4 cells assessed as protection against virus-induced cytopathic effect incubated for 5 days by MTT assay. The data set is classed as functional. The conditions noted are these: time 5 day.

Data set [13] deals with Human immunodeficiency virus 1. The experiment in a line: Potency index, ratio of doravirine EC50 to test compound EC50 for antiviral activity against NNRTI-resistant HIV-1 harboring RT K103N mutant infected in human MT4 cells assessed as protection against virus-induced cytopathic effect incubated for 5 days by MTT assay. The conditions noted are these: time 5 day. In kind it is functional.

In data set [14] the target is Human immunodeficiency virus type 1 reverse transcriptase (Human immunodeficiency virus 1, UniProt Q72547). As to the kind of experiment: Inhibition of wild type HIV-1 Reverse transcriptase incubated for 1 hrs by ELISA analysis.
Data set [15] is described as follows: in vitro. The conditions noted are these: human, MT4 cells.
Description: Selectivity index, ratio of CC50 for human MT4 cells to EC50 for wild type HIV-1 IIIB infected in human MT4 cells
Data set [16] in a line: in vitro. The conditions noted are these: human, MT4 cells. This is another data set of the same source.
Description: Selectivity index, ratio of CC50 for human MT4 cells to EC50 for HIV-1 RES056 harboring RT K103N/Y181C mutant infected in human MT4 cells
Data set [17] concerns Human immunodeficiency virus 1. The experiment in a line: microbe, parasite or virus in culture. The conditions noted are these: Human immunodeficiency virus 1, IIIB, MT4, 120 h.
Description: Antiviral activity against wild type HIV-1 IIIB infected in human MT4 cells assessed as protection against virus-induced cytopathic effect incubated for 5 days by MTT assay

Turning to `Cc1cc(/C=C/C#N)cc(C)c1Oc1ccnc(Nc2ccc3nncn3c2)n1`, the EC50 (in general, the concentration giving half of the maximal effect) was found to be 2 nM in data set [1]; 11 nM in data set [2]; 32 nM in data set [3]; 9 nM in data set [4]; 810 nM in data set [5]; 350 nM in data set [6]. Also, the EC50 is 580 nM in [7], 6140 nM in [9] and 2 nM in data set [17]. Moreover, the CC50 (in general, the concentration giving 50% cytotoxicity) at 120 h in data set [8] was determined as 22000 nM. Moreover, the “Ratio EC50” value in data set [10] is 19; in [11], 2747; in [12], 50; in data set [13], 5. Moreover, in data set [14], the IC50 – broadly, the concentration that inhibits the measured activity by half – is 25 nM. In addition, the selectivity ratio worked out at 11500 in data set [15] and 182 in data set [16].
